The subject of data set [1] is C. albicans. Briefly: Modified MIC50 assay. Format: cell-based, C. albicans SC5314. Particulars: 24 h.
For data set [2], the system named is C. albicans. Particulars: mice, prophylactic administration; cited from earlier work.
For data set [3], the target named is NLRP3 inflammasome (Homo sapiens, UniProt Q96P20). Format: cell-based.
Data set [4] deals with C. dubliniensis. Briefly: Modified MIC50 assay. It is filed as cell-based, C. dubliniensis CD36. Particulars: Candida dubliniensis, 24 h.
The test system of data set [5] is C. albicans AHAS. The note with it: cited from earlier work.
The subject of data set [6] is C. tropicalis. Briefly: Modified MIC50 assay. It is filed as cell-based, C. tropicalis MYA3404. The note with it: Candida tropicalis, 24 h.
The subject of data set [7] is C. auris. Briefly: Modified MIC50 assay. It is filed as cell-based. Particulars: Candidozyma auris, 24 h.
Data set [8] deals with Candida species. The note with it: via targeting of AHAS; cited from earlier work.
Data set [9] in a line: XTT reduction viability assay. It is filed as cell-based. The note with it: human.
Data set [10] concerns C. albicans. The note with it: prior work of the laboratory; cited from earlier work.

In brackets after ≈: the same amount, converted by molar mass.

Sequence of NLRP3 inflammasome (Q96P20 whole entry): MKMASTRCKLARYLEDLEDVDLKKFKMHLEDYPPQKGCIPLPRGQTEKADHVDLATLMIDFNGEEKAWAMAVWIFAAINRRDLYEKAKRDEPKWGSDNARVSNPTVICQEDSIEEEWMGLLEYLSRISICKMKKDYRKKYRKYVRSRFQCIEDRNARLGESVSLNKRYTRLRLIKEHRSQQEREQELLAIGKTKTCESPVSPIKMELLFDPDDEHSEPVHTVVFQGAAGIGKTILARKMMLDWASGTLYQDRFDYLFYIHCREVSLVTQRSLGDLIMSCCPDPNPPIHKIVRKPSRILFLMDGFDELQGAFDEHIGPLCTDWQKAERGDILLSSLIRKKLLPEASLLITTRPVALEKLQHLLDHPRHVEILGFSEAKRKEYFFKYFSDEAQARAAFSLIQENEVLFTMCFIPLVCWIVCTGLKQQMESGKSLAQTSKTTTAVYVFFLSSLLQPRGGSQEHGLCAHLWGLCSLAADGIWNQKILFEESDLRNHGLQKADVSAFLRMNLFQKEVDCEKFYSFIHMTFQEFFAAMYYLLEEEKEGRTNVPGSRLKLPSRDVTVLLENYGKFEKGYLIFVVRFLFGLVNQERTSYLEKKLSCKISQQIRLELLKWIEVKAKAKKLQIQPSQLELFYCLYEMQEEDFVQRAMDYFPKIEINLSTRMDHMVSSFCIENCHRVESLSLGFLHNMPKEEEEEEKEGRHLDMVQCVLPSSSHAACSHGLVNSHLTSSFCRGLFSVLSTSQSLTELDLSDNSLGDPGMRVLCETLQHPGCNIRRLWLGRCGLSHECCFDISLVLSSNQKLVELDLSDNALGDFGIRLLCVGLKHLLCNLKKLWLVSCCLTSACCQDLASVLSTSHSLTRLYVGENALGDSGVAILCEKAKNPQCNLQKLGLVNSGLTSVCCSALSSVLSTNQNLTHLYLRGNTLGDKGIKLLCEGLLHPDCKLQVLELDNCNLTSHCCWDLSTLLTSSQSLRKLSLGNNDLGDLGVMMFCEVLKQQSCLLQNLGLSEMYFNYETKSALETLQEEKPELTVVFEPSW

By MIC50 is commonly meant the lowest concentration that inhibits either 50% of growth or 50% of the strains tested, depending on the study. Broadly, the IC50 is the concentration at which inhibition is half-maximal. Read a low IC50 as higher potency. What is called viability is a read-out of living cells in per cent, often relative to untreated cells. Regarding `CCOC(=O)c1ccccc1S(=O)(=O)NC(=O)Nc1nc(Cl)cc(OC)n1` [Compound 13, chlorimuron ethyl], the MIC50 turned out to be 0.5 ± 0.2 µM (≈ 0.207 µg/mL) in [1] (C. albicans, YNB, mean ± SD); 0.5 µM (≈ 0.207 µg/mL) in data set [1] (Candida albicans); 1.3 ± 0.7 µM (≈ 0.539 µg/mL) in data set [4]; 21.1 ± 3 µM (≈ 8.75 µg/mL) in data set [6]; 0.8 ± 0.3 µM (≈ 0.332 µg/mL) in data set [7]. Besides, in data set [2], the “fungal burden in the kidney, spleen, liver, and lungs” value was “significantly reduced fungal burden”. The “protection against disseminated C. albicans infection” value in data set [2] is reported as “provided protection”. For the same molecule, in data set [3], the IC50 was more than 50 µM. Also, the “inhibition of purified C. albicans AHAS protein” value in data set [5] was “potent inhibitors”. In [8], the “growth of the Candida species” value was “effective at reducing growth”. Moreover, the viability at 5 h, 50 µM in [9] came to 103 ± 7.3%.
Take `COc1ccc(Cl)cc1C(=O)NCCc1ccc(S(=O)(=O)NC(=O)NC2CCCCC2)cc1` [glyburide]: the “preventing fungal growth or filamentation” value in data set [10] is on record as “completely ineffective”.

(Values after PMC11344480 (ACS infectious diseases, 2021).)
